Measured values as given in ChEMBL document CHEMBL1126209, “Synthesis of a peptidyl 2,2-difluoro-3-aminopropionate” (Bioorg Med Chem Lett, 1992).
Residues, ends and D or L forms follow the SMILES beside them. *: point of attachment. Dansyl = CN(C)c1cccc2c(S(=O)(=O)*)cccc12; Cbz = O=C(OCc1ccccc1)*; CF3 = FC(F)(F)*

The molecules below were run against T1, Neutrophil elastase (Homo sapiens, UniProt P08246) (assay: Compound was evaluated In vitro for inhibition of human neutrophil elastase).
T1 sequence (P08246 whole entry): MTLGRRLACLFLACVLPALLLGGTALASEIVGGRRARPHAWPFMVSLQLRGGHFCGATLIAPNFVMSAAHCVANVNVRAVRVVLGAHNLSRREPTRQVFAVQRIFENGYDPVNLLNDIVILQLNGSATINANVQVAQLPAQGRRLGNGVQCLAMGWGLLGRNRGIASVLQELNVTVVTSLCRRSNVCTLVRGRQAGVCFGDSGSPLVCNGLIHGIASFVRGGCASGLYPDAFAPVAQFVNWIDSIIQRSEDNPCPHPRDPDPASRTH

Row | Ki [nM] | SMILES
1 | 1 | CC(C)[C@H](NC(=O)[C@@H]1CCCN1C(=O)[C@H](C)NC(=O)[C@H](C)NC(=O)OCc1ccccc1)C(=O)C(F)(F)F (Cbz-AAPV-CF3)
2 | > 300000 | CCOC(=O)C(F)(F)C(NC(=O)C1CCCN1C(=O)C(C)NC(=O)C(C)NC(=O)OC(C)(C)C)C(C)C (centres undefined)
3 | 10 | CC(C)[C@H](NC(=O)[C@@H]1CCCN1C(=O)[C@H](C)NC(=O)[C@H](C)NS(=O)(=O)c1cccc2c(N(C)C)cccc12)C(=O)C(F)(F)F (Dansyl-AAPV-CF3)
4 | 44 | CC(C)[C@H](NC(=O)[C@@H]1CCCN1C(=O)[C@H](C)NC(=O)[C@H](C)NCC(=O)OC(C)(C)C)C(=O)C(F)(F)F
